# How the values were obtained:
# bovine trypsin = biological target: T1, bovine trypsin (Bos taurus, UniProt P00760); assay: Trypsin inhibition assay (proteolytic activity on BApNA); assay type: biochemical
# T1 construct: purchased Sigma-Aldrich T8003
# T1 sequence (P00760 24-246): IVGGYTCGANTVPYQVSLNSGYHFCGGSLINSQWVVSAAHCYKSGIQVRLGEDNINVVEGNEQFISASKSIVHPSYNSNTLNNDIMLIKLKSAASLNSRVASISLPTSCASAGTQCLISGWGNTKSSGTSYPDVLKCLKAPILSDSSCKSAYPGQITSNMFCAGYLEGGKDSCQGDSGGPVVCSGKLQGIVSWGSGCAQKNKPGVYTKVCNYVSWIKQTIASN
# Protocol: The inhibition by the benzamidine derivatives against trypsin was measured using an assay probing the enzyme proteolytic activity on the substrate Nα-Benzoyl-DL-arginine-4-nitroanilide hydrochloride (BApNA). […] 5 µl of BApNA solution (10 mM, dissolved in DMSO) were added immediately prior to the measurement. The final total volume was 100 µl per well. The measurements were performed in a Low Binding 384-well plate. The absorption was measured at 410 nm in intervals of 10 sec for 15 min at 37 °C using a Beckman Coulter’s Paradigm Detection Platform (Brea, USA). The measurements were performed in triplicate. The activity of trypsin was calculated by the hydrolysis rate of BApNA after subtraction of the background-hydrolysis rate. The curves were plotted as a function of the concentration of the inhibitor against the relative enzyme activity. Vmax was derived from the detected absorption signal for each concentration and logistic fitting was performed to obtain IC50 values using Origin 2019b (OriginLab).
# [1] = biological target: T2, bovine carbonic anhydrase II (CAII) (Bos taurus, UniProt P00921); assay: Carbonic anhydrase II inhibition assay (esterase activity on p-nitrophenyl acetate); assay type: biochemical; settings: for remaining activity at 0.0001024 µM: 0.1024 nM compound; for remaining activity at 0.0001024 µM / remaining activity at 0.000512 µM / remaining activity at 0.00256 µM / remaining activity at 0.064 µM / remaining activity at 0.32 µM / remaining activity at 1.6 µM / remaining activity at 8 µM / remaining activity at 40 µM / remaining activity at 200 µM: source data of Fig. 2c, read-out: Normalized CA II Activity (Mean); for remaining activity at 0.000512 µM: 0.512 nM compound; for remaining activity at 0.00256 µM: 2.56 nM compound; for remaining activity at 0.064 µM: 64 nM compound; for remaining activity at 0.32 µM: 320 nM compound; for remaining activity at 1.6 µM: 1600 nM compound; for remaining activity at 8 µM: 8000 nM compound; for remaining activity at 40 µM: 40000 nM compound; for remaining activity at 200 µM: 200000 nM compound; for IC50: mean ± SE, three independent measurements, n.d: not detected
# T2 construct: purchased Sigma-Aldrich C7749
# T2 sequence (P00921 whole entry): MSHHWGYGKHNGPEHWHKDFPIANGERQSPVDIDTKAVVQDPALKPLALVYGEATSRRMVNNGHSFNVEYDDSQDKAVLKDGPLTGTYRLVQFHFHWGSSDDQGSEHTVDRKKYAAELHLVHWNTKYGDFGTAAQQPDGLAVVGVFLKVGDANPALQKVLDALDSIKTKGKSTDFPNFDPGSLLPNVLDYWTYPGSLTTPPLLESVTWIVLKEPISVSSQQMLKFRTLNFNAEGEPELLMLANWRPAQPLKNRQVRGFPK
# Protocol: CAII inhibition assay was performed to measure the inhibitory effect of re-synthesized CBS-conjugates. The esterase activity of CAII with a chromogenic substrate p-nitrophenyl acetate (pNPA) was measured. The rates of hydrolysis were determined by an increase of absorption at 410 nm after incubating different compounds with CAII. Re-synthesized compounds were diluted in a serial spanning mM to μM concentrations. […] 5 µl of pNPA (50 mM in 20% DMSO) was added to the plate right before the measurement. The absorption was measured at 37 °C each 10 sec for 15 min using a Beckman Coulter’s Paradigm Detection Platform (Brea, USA). The initial Vmax was obtained from the increase of absorption and the Vmax was plotted against the inhibitor concentrations and logistic fitting was performed to obtain IC50 values using Origin 2019b (OriginLab) software.
# [2] = Concentration 0.1024 nM, fraction of uninhibited activity
# [3] = Concentration 0.512 nM, fraction of uninhibited activity
# [4] = Concentration 2.56 nM, fraction of uninhibited activity
# [5] = Concentration 64 nM, fraction of uninhibited activity
# [6] = Concentration 320 nM, fraction of uninhibited activity
# [7] = Concentration 1600 nM, fraction of uninhibited activity
# [8] = Concentration 8000 nM, fraction of uninhibited activity
# [9] = Concentration 40000 nM, fraction of uninhibited activity
# [10] = Concentration 200000 nM, fraction of uninhibited activity
# [11] = Concentration […], fraction of uninhibited activity
remaining activity at 0.0001024 µM [1],remaining activity at 0.000512 µM [1],remaining activity at 0.00256 µM [1],remaining activity at 0.064 µM [1],remaining activity at 0.32 µM [1],remaining activity at 1.6 µM [1],remaining activity at 8 µM [1],remaining activity at 40 µM [1],remaining activity at 200 µM [1],IC50 [1],"mean (Figure 3c, dose-response, relative trypsin activity) (bovine trypsin; [2])","mean (Figure 3c, dose-response, relative trypsin activity) (bovine trypsin; [3])","mean (Figure 3c, dose-response, relative trypsin activity) (bovine trypsin; [4])","mean (Figure 3c, dose-response, relative trypsin activity) (bovine trypsin; [5])","mean (Figure 3c, dose-response, relative trypsin activity) (bovine trypsin; [6])","mean (Figure 3c, dose-response, relative trypsin activity) (bovine trypsin; [7])","mean (Figure 3c, dose-response, relative trypsin activity) (bovine trypsin; [8])","mean (Figure 3c, dose-response, relative trypsin activity) (bovine trypsin; [9])","mean (Figure 3c, dose-response, relative trypsin activity) (bovine trypsin; [10])","mean (Figure 3c, dose-response, relative trypsin activity) (bovine trypsin; [11])",Structure (SMILES),further results
,,,,,,,,,,,,,,,,,,,,N=C(N)c1ccc(CNC(=O)C2CCC(C(=O)NCCNC(=S)Nc3cccc(I)c3)CC2)cc1 (stereo not shown) [Compound T-3],"remaining activity at 0.0001024 µM (bovine trypsin; Concentration 0.1024 nM, fraction of uninhibited activity, read-out: mean (Figure 3c, dose-response, relative trypsin activity)): 93.7%; remaining activity at 0.000512 µM (bovine trypsin; Concentration 0.512 nM, fraction of uninhibited activity, read-out: mean (Figure 3c, dose-response, relative trypsin activity)): 99.6%; remaining activity at 0.00256 µM (bovine trypsin; Concentration 2.56 nM, fraction of uninhibited activity, read-out: mean (Figure 3c, dose-response, relative trypsin activity)): 98.7%; remaining activity at 0.064 µM (bovine trypsin; Concentration 64 nM, fraction of uninhibited activity, read-out: mean (Figure 3c, dose-response, relative trypsin activity)): 108%; remaining activity at 0.32 µM (bovine trypsin; Concentration 320 nM, fraction of uninhibited activity, read-out: mean (Figure 3c, dose-response, relative trypsin activity)): 90.1%; remaining activity at 1.6 µM (bovine trypsin; Concentration 1600 nM, fraction of uninhibited activity, read-out: mean (Figure 3c, dose-response, relative trypsin activity)): 56.5%; remaining activity at 8 µM (bovine trypsin; Concentration 8000 nM, fraction of uninhibited activity, read-out: mean (Figure 3c, dose-response, relative trypsin activity)): 18.3%; remaining activity at 40 µM (bovine trypsin; Concentration 40000 nM, fraction of uninhibited activity, read-out: mean (Figure 3c, dose-response, relative trypsin activity)): 3.2%; remaining activity at 200 µM (bovine trypsin; Concentration 200000 nM, fraction of uninhibited activity, read-out: mean (Figure 3c, dose-response, relative trypsin activity)): 0.69%; remaining activity at 650 µM (bovine trypsin; Concentration 650000 nM, fraction of uninhibited activity, read-out: mean (Figure 3c, dose-response, relative trypsin activity)): 0%; improvement (of inhibitory effect) (bovine trypsin; compared with 4-aminomethyl benzamidine): 30 fold; IC50 (bovine trypsin; mean ± SE, three independent measurements, n.d: not detected): 2100 ± 400 nM"
91.3%,93.6%,96.1%,83%,61.4%,43.3%,25.6%,15%,14.3%,670 nM,,,,,,,,,,,NS(=O)(=O)c1ccc(NC(=O)COc2ccccc2OCC(=O)NCCNC(=O)/C=C/c2ccc(-c3ccccc3C(F)(F)F)o2)cc1 [Compound C-2],improvement in the IC50 value ([1]; compared with sulfanilamide): 20 fold
,,,,,,,,,,1.021,0.9691,0.9977,0.9529,0.962,0.9553,0.8147,0.4599,0.1722,0.9721,N=C(N)c1ccc(CNC2CC(=O)N(CC3CCC(C(=O)NCCNC(=S)Nc4cccc(I)c4)CC3)C2=O)cc1 (stereo not shown) [Compound T-5],"mean (Figure 3c, dose-response, relative trypsin activity) (bovine trypsin; Concentration 650000 nM, fraction of uninhibited activity): 0.07286"
101%,100%,96.7%,90.2%,78.3%,56.6%,33.3%,19.1%,11.8%,2020 ± 310 nM,,,,,,,,,,,NS(=O)(=O)c1ccc(NC(=O)COCC(=O)NCCNC(=O)/C=C/c2ccc(-c3ccccc3C(F)(F)F)o2)cc1 [Compound C-5],
,,,,,,,,,,0.9598,1.038,1.032,1.057,1.07,0.9365,0.7184,0.2303,0.05821,1.021,N=C(N)c1ccc(CNC(=O)CCCC(=O)NCCNC(=S)Nc2cccc(I)c2)cc1 [Compound T-1],"mean (Figure 3c, dose-response, relative trypsin activity) (bovine trypsin; Concentration 830000 nM, fraction of uninhibited activity): 0.00834"

# — publication PMC10023787, “Trio-pharmacophore DNA-encoded chemical library for simultaneous selection of fragments and linkers” (Nature Communications, 2023)
